Experimental data taken from patent publication US10385395B2, “Diagnostic tools for response to 6-thiopurine therapy” (THE REGENTS OF THE UNIVERSITY OF CALIFORNIA, priority 2012, dated 2019).

B1: IFN-y: recombinant cytokine (R&D Systems) added to a final concentration of 20 ng ml-1 (protein, UniProt P01579 24-161, looked up)
Interferon gamma: QDPYVKEAENLKKYFNAGHSDVADNGTLFLGILKNWKEESDRKIMQSQIVSFYFKLFKNFKDDQSIQKSVETIKEDMNVKFFNSNKKKRDDFEKLTNYSVTDLNVQRKAIHELIQVMAELSPAAKTGKRKRSQMLFRG

Tests used:
NK cells = conditions: Crohn's disease patients; Brogan et al. 1985; cited from earlier work
[1] = system: CD4+ T cell proliferation; experiment: T cell proliferation in the absence of NK cells with exogenous cytokines added; type: cell-based, human; conditions: cytokine added at 20 ng mL-1, three-day culture (FIG. 9)
Experimental: Before co-culture, round bottom 96-well plates were coated with anti-CD3/CD28 antibody (R&D Systems, Minneapolis, Minn.) in PBS at 1.5 ug ml^−1 at room temperature for 2 hours, or at 0.5 ug ml^−1 at 4° C. overnight. […] For transwell assay, 24-well plates were used; NT (cells were placed on the filter side of a 1.0 um pore-sized transwell (BD Falcon, San Jose, Calif.), and CFSE-stained T cells were placed on the plate side of the transwell.

| Molecule | depletion of NK cells by therapy compared to other lymphoid cell types (NK cells) | CD4+ cell proliferation with exogenous cytokine [1] |
| --- | --- | --- |
| Nc1nc2nc[nH]c2c(=S)[nH]1 [6-thioguanine] | quickly and profoundly depleted |  |
| IL-6: recombinant cytokine (R&D Systems) added to a final concentration of 20 ng ml-1 |  | greatly facilitated |
| B1 |  | marginal effects |
